Results taken from patent US8927577B2, “Quinolinyl glucagon receptor modulators” (Pfizer Inc., priority 2011, dated 2015).
Where a name gives a salt, the structure may show the parent alone.

Tests used:
[1] = target: T1, human glucagon receptor (Homo sapiens (Human), UniProt P47871); assay: Glucagon cAMP Assay; format: cell-based; settings: CHOK1 cells stably transfected with the human glucagon receptor; 100 pM glucagon challenge; Kb from IC50 by modified Cheng-Prusoff equation
Protocol: The Cisbio cAMP detection assay is used to determine the ability of punitive glucagon antagonist to block glucagon induced cAMP production. Potential glucagon antagonists are re-suspended and diluted in 100% DMSO. Prior to use in the Glucagon cAMP assay 100×DMSO compound stocks are diluted 20× with DMEM-F12 media (Invitogen) containing either 0.1% or 4% BSA. 2 uls of 5× compound stocks are spotted into the appropriate wells of low binding white solid bottom 384 well plates (Corning). 2 uls of 5% DMSO or known glucagon antagonist are added to each plate to define the assay window. CHOK1 cells stably transfected with the human glucagon receptor are removed from culture flasks with cell dissociation buffer. Cell pellets are re-suspended, at a concentration of 8.3e^5 cells/ml in DMEM-F12 with or without 4% BSA and 200 uM IBMX. 6 uls of cell suspensions are added to the assay plates. Plates are incubated for 20 min at room temperature prior to the addition of a 100 pM challenge dose of glucagon. On a separate plate glucagon dose response curves are run to determine the EC50 of glucagon. After a 30 min room temperature incubation the reaction is terminated by the addition of lysis buffer containing the cAMP detection reagents. Plates are incubated for an additional 60 min at room temperature prior to being read on the Perkin Elmer fluorescent plate reader. Raw is converted to nM of cAMP produced based on a cAMP standard curve. Converted data is then analyzed using the Pfizer data analysis program. IC50 values are determined from the generated sigmoidal dose response curves. Kb values are the calculated using a modified Cheng-Prusoff equation.

[2] = target: T1, human glucagon receptor; assay: Human Glucagon SPA Assay; settings: membrane from chem-1 cells stably transfected with the human glucagon receptor; 125 pM [125I]Glucagon-Cex; Ki by Cheng-Prusoff equation; read-out: Binding Ki
Protocol: The Glucagon SPA assay is used to determine the ability of test compounds to block the binding of glucagon-cex to the glucagon receptor. Test compounds are re-suspended and serially diluted in 100% DMSO. 1 ul of test compound at the desired concentrations is spotted into the appropriate wells of 96 well low binding white clear bottom plate (Corning). 1 ul of DMSO is spotted into total binding wells. 1 ul of a known glucagon antagonist at a concentration of 20 uM is added to non specific binding wells. […] All assay ingredients with the exception of test compounds are re-suspended in the following buffer; 50 mM Hepes pH 7.4; 5 mM MgCl2; 1 mM CaCl; 5% glycerol and 0.2% BSA. Following a 6-10 hr incubation at room temperature the amount of hot ligand bound to the cell membranes is determined by reading the plates on a Wallac Trilux radioactive emission detector. Data is analyzed using Pfizer's Data analysis program. IC50 values are then determined from the generated sigmoidal dose response curves. Ki values are calculated using Cheng-Prusoff equation.

T1 sequence (P47871 26-477): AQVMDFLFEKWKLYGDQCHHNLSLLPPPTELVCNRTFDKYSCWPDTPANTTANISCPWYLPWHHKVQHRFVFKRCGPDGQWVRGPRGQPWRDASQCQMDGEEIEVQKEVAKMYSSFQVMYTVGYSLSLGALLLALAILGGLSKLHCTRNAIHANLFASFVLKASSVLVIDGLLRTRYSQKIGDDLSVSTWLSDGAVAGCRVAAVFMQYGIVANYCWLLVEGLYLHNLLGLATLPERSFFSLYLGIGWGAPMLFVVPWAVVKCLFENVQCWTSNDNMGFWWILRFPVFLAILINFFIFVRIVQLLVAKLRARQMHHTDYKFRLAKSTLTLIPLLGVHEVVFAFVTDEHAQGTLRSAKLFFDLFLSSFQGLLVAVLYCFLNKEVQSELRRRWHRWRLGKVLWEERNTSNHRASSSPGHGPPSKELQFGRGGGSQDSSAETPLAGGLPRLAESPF

Kb [1] [nM] | Ki [2] [nM] | SMILES
23 | 53 | Cc1cc2ccccc2nc1NC(c1ccc(C(=O)NCCC(=O)O)cc1)C1CC(C)(C)C1 (single isomer, unassigned; isomer 1) [Example 32, 3-{4-[(3,3-dimethyl-cyclobutyl)-(3-methyl-quinolin-2-ylamino)-methyl]-benzoylamino}-propionic acid, isomer 1]
5100 | 7360 | CC(C)CC(Nc1ncc2ccc(F)cc2n1)c1ccc(C(=O)NCCC(=O)O)cc1 (racemic) [Example 4, (+/−)-3-{4-[1-(7-fluoro-quinazolin-2-ylamino)-3-methyl-butyl]-benzoylamino}-propionic acid]
140 | 199 | CC(C)CC(Nc1ccc2cccc(Cl)c2n1)c1ccc(C(=O)NCCC(=O)O)cc1 (racemic) [Example 13, (+/−)-3-{4-[1-(8-chloro-quinolin-2-ylamino)-3-methyl-butyl]-benzoylamino}-propionic acid]
47 | 25 | CC1(C)CC(C(Nc2cnc3cc(F)ccc3c2)c2ccc(C(=O)NCCC(=O)O)cc2)C1 (racemic) [Example 22, (+/−)3-(4-((3,3-dimethylcyclobutyl)(7-fluoroquinolin-3-ylamino)methyl)benzamido)propanoic acid]
310 | 242 | Cc1cc(NC(CC(C)C)c2ccc(C(=O)NCCC(=O)O)cc2)nc2cc(F)ccc12 (racemic) [Example 12, (+/−)-3-{4-[1-(7-fluoro-4-methyl-quinolin-2-ylamino)-3-methyl-butyl]-benzoylamino}-propionic acid]
33 | 14 | Cc1cc2cc(F)ccc2nc1NC(c1ccc(C(=O)NCCC(=O)O)cc1)C1CC(C)(C)C1 (single isomer, unassigned; isomer 2) [Example 35, 3-{4-[(3,3-dimethyl-cyclobutyl)-(6-fluoro-3-methyl-quinolin-2-ylamino)-methyl]-benzoylamino}-propionic acid, isomer 2]
1100 | 479 | CC(C)CC(Nc1ccc2ccc(C(F)(F)F)cc2n1)c1ccc(C(=O)NCCC(=O)O)cc1 (racemic) [Example 15, (+/−)3-(4-(3-methyl-1-(7-(trifluoromethyl)quinolin-2-ylamino)butyl)benzamido)propanoic acid]
880 | 360 | Cc1nc2ccccc2cc1NC(CC(C)C)c1ccc(C(=O)NCCC(=O)O)cc1 (stereo not shown) [Example 17, (+\−)-3-(4-(3-methyl-1-(2-methylquinolin-3-ylamino)butyl)benzamido)propanoic acid]
91 | 101 | Cc1cc2ccccc2nc1NC(CC(C)C)c1ccc(C(=O)NCCC(=O)O)cc1 (racemic) [Example 11, (+/−)-3-{4-[3-methyl-1-(3-methyl-quinolin-2-ylamino)-butyl]-benzoylamino}-propionic acid]
620 | 1860 | COc1cccc2ccc(NC(CC(C)C)c3ccc(C(=O)NCCC(=O)O)cc3)nc12 (racemic) [Example 6, (+/−)-3-{4-[1-(8-methoxy-quinolin-2-ylamino)-3-methyl-butyl]-benzoylamino}-propionic acid]
450 | 531 | CC(C)CC(Nc1cc2ccccc2cn1)c1ccc(C(=O)NCCC(=O)O)cc1 (racemic) [Example 9, (+/−)-3-{4-[1-(isoquinolin-3-ylamino)-3-methyl-butyl]-benzoylamino}-propionic acid trifluoroacetate]
220 | 198 | Cc1cc(NC(CC(C)C)c2ccc(C(=O)NCCC(=O)O)cc2)nc2ccccc12 (racemic) [Example 10, (+/−)-3-{4-[3-methyl-1-(4-methyl-quinolin-2-ylamino)-butyl]-benzoylamino}-propionic acid]
100 | 109 | Cc1c(NC(CC(C)C)c2ccc(C(=O)NCCC(=O)O)cc2)cnc2ccccc12 (stereo not shown) [Example 18, (+\−)-3-(4-(3-methyl-1-(4-methylquinolin-3-ylamino)butyl)benzamido)propanoic acid]
140 | – | CC1(C)CC(C(Nc2cnc3ccccc3c2)c2ccc(C(=O)NCCC(=O)O)cc2)C1 (stereo not shown) [Example 24, 3-(4-((3,3-dimethylcyclobutyl)(quinolin-3-ylamino)methyl)benzamido)propanoic acid]
64 | 74 | Cc1cc2ccccc2nc1NC(c1ccc(C(=O)NCCC(=O)O)cc1)C1CC(C)(C)C1 (racemic) [Example 19, (+/−)-3-{4-[(3,3-dimethyl-cyclobutyl)-(3-methyl-quinolin-2-ylamino)-methyl]-benzoylamino}-propionic acid]
800 | 91 | CC(C)CC(Nc1ccc2cc(C(F)(F)F)ccc2n1)c1ccc(C(=O)NCCC(=O)O)cc1 (racemic) [Example 16, (+/−)3-(4-(3-methyl-1-(6-(trifluoromethyl)quinolin-2-ylamino)butyl)benzamido)propanoic acid]
1300 | 1240 | Cc1cc2ccccc2nc1NC(CC(C)C)c1ccc(C(=O)NCCC(=O)O)cc1 (single isomer, unassigned; isomer 2) [Example 31, 3-(4-(3-methyl-1-((3-methylquinolin-2-yl)amino)butyl)benzamido)propanoic acid, Isomer 2]
64 | 39 | Cc1cc2cc(F)ccc2nc1NC(c1ccc(C(=O)NCCC(=O)O)cc1)C1CC(C)(C)C1 (racemic) [Example 20, (+/−)-3-{4-[(3,3-dimethyl-cyclobutyl)-(6-fluoro-3-methyl-quinolin-2-ylamino)-methyl]-benzoylamino}-propionic acid]
1000 | 979 | Cc1nc2ccccc2nc1NC(CC(C)C)c1ccc(C(=O)NCCC(=O)O)cc1 (racemic) [Example 8, (+/−)-3-{4-[3-methyl-1-(3-methyl-quinoxalin-2-ylamino)-butyl]-benzoylamino}-propionic acid]
110 | 173 | CCC[C@@H](Nc1nc2ccccc2cc1C)c1ccc(C(=O)NCCC(=O)O)cc1 [Example 1, (+)-3-(4-(1-((3-Methylquinolin-2-yl)amino)butyl)benzamido)propanoic acid]
1000 | – | CC(C)CC(Nc1cnc2ccccc2n1)c1ccc(C(=O)NCCC(=O)O)cc1 (racemic) [Example 7, (+/−)-3-{4-[3-methyl-1-(quinoxalin-2-ylamino)-butyl]-benzoylamino}-propionic acid]
270 | 240 | CC(C)CC(Nc1cnc2ccccc2c1)c1ccc(C(=O)NCCC(=O)O)cc1 (racemic) [Example 3, (+/−)3-{4-[3-methyl-1-(quinolin-3-ylamino)-butyl]-benzoylamino}-propionic acid]
520 | 280 | CCC[C@H](Nc1nc2ccccc2cc1C)c1ccc(C(=O)NCCC(=O)O)cc1 [Example 2, (−)-3-(4-(1-((3-Methylquinolin-2-yl)amino)butyl)benzamido)propanoic acid]
380 | 452 | CC(C)CC(Nc1ccc2ccccc2n1)c1ccc(C(=O)NCCC(=O)O)cc1 (racemic) [Example 5, (+/−)-3-{4-[3-methyl-1-(quinolin-2-ylamino)-butyl]-benzoylamino}-propionic acid]
3100 | – | CC(C)CC(Nc1ncc2ccccc2n1)c1ccc(C(=O)NCCC(=O)O)cc1 (racemic) [Example 14, (+/−)-3-{4-[3-methyl-1-(quinazolin-2-ylamino)-butyl]-benzoylamino}-propionic acid]
1180 | – | Cc1cc2cc(F)ccc2nc1NC(c1ccc(C(=O)NCCC(=O)O)cc1)C1CC(C)(C)C1 (single isomer, unassigned; isomer 1) [Example 34, 3-{4-[(3,3-dimethyl-cyclobutyl)-(6-fluoro-3-methyl-quinolin-2-ylamino)-methyl]-benzoylamino}-propionic acid, isomer 1]
1820 | – | Cc1cc2ccccc2nc1NC(c1ccc(C(=O)NCCC(=O)O)cc1)C1CC(C)(C)C1 (single isomer, unassigned; isomer 2) [Example 33, 3-{4-[(3,3-dimethyl-cyclobutyl)-(3-methyl-quinolin-2-ylamino)-methyl]-benzoylamino}-propionic acid, isomer 2]
